Test results from the supplement of paper PMC11061612.

What was measured:
Test in all cases: Bliss excess, mean over the matrix (fraction); higher = more synergy
[1] = tested on: CAPAN-1 (Pancreatic Carcinoma)
In short: (§1)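 After 24 hours at 37°C and 5% CO2 in 1536-well plates, cells in DMEM/F12 or RPMI plus 10% FBS received two-drug dose matrices for 72 hours. Viability came from CellTiter-Glo 2.0 luminescence and was scaled as inhibition, anchored at 0 by vehicle wells and at 1 by blank wells. Combination Emax is taken as the second-highest inhibition in the matrix, and Bliss excess as the observed combination effect less EA + EB − EA·EB, with EA and EB the single-agent effects.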

[2] = tested on: NCI-H69 (Small Cell Lung Carcinoma)
In short: as §1

[3] = tested on: MHH-PREB-1 (B-Cell Non-Hodgkin's Lymphoma)
In short: as §1

[4] = tested on: K5 (Thyroid Gland Carcinoma)
In short: as §1

[5] = tested on: HDLM-2 (Hodgkin's Lymphoma)
In short: as §1

[6] = tested on: 639-V (Bladder Carcinoma)
In short: as §1

Mewo (Melanoma) = tested on: Mewo (Melanoma)
In short: as §1

[7] = tested on: LoVo (Colorectal Carcinoma)
In short: as §1

[8] = tested on: UMC-11 (Other Solid Carcinomas)
In short: as §1

[9] = tested on: Hs-633T (Other Solid Carcinomas)
In short: as §1

[10] = tested on: HCC-15 (Squamous Cell Lung Carcinoma)
In short: as §1

NCI-H2795 (Mesothelioma) = tested on: NCI-H2795 (Mesothelioma)
In short: as §1

[11] = tested on: EN (Endometrial Carcinoma)
In short: as §1

SH-4 (Melanoma) = tested on: SH-4 (Melanoma)
In short: as §1

NCI-H2461 (Mesothelioma) = tested on: NCI-H2461 (Mesothelioma)
In short: as §1

[12] = tested on: SK-OV-3 (Ovarian Carcinoma)
In short: as §1

[13] = tested on: HO-1-u-1 (Oral Cavity Carcinoma)
In short: as §1

[14] = tested on: SW626 (Colorectal Carcinoma)
In short: as §1

NB14 (Neuroblastoma) = tested on: NB14 (Neuroblastoma)
In short: as §1

[15] = tested on: RPMI-6666 (Non-Cancerous)
In short: as §1

Question: For `Cc1cc2ncnn2cc1Nc1ncc2c(n1)n(C1CCOCC1)c(=O)n2C` [AZD7648] + C[C@@H]1COCCN1C2=NC(=NC(=C2)C3(CC3)[S@](=N)(=O)C)C4=C5C=CNC5=NC=C4 [AZD6738] (first compound max 10 µM, 7x7, partner max 10 µM), which Bliss excess [1] is on record?
Answer: 0.0322

Question: What about the Bliss excess [2] of the same molecule?
Answer: -0.0348

Question: And the Bliss excess [3]?
Answer: 0.0336

Question: And the Bliss excess [4]?
Answer: 0.0129

Question: And the Bliss excess [5]?
Answer: -0.0357

Question: And the Bliss excess [6]?
Answer: 0.0317

Question: What about the Bliss excess (Mewo (Melanoma)) of the same molecule?
Answer: -0.0217

Question: What about the Bliss excess [7] of the same molecule?
Answer: -0.0058

Question: And the Bliss excess [8]?
Answer: 0.0002

Question: And the Bliss excess [9]?
Answer: -0.0138

Question: What about the Bliss excess [10] of the same molecule?
Answer: 0.0093

Question: And the Bliss excess (NCI-H2795 (Mesothelioma))?
Answer: 0.0603

Question: What about the Bliss excess [11] of the same molecule?
Answer: -0.0485

Question: What about the Bliss excess (SH-4 (Melanoma)) of the same molecule?
Answer: -0.0043

Question: What about the Bliss excess (NCI-H2461 (Mesothelioma)) of the same molecule?
Answer: -0.0188

Question: And the Bliss excess [12]?
Answer: 0.0411

Question: And the Bliss excess [13]?
Answer: -0.0014

Question: What about the Bliss excess [14] of the same molecule?
Answer: 0.0302

Question: What about the Bliss excess (NB14 (Neuroblastoma)) of the same molecule?
Answer: -0.0026

Question: What about the Bliss excess [15] of the same molecule?
Answer: -0.0048

Question: What does the source list for `Cc1cc2ncnn2cc1Nc1ncc2c(n1)n(C1CCOCC1)c(=O)n2C` [AZD7648] + O=C(c1cc(Cc2n[nH]c(=O)c3ccccc23)ccc1F)N1CCN(C(=O)C2CC2)CC1 [Olaparib] (first compound max 10 µM, 7x7, partner max 10 µM)?
Answer: Bliss excess [1]: -0.1; Bliss excess [2]: -0.0151; Bliss excess [3]: -0.026; Bliss excess [4]: -0.0159; Bliss excess [5]: -0.0558; Bliss excess [6]: -0.0184; Bliss excess (Mewo (Melanoma)): -0.0885; Bliss excess [7]: -0.0382; Bliss excess [8]: 0.0471; Bliss excess [9]: -0.0191; Bliss excess [10]: -0.0059; Bliss excess (NCI-H2795 (Mesothelioma)): -0.0183; Bliss excess [11]: -0.0423; Bliss excess (SH-4 (Melanoma)): -0.0401; Bliss excess (NCI-H2461 (Mesothelioma)): -0.0601; Bliss excess [12]: -0.0478; Bliss excess [13]: -0.0481; Bliss excess [14]: -0.0584; Bliss excess (NB14 (Neuroblastoma)): -0.0534; Bliss excess [15]: -0.0545

Question: With `NC1(C(=O)N[C@@H](CCO)c2ccc(Cl)cc2)CCN(c2ncnc3[nH]ccc23)CC1` [Capivasertib] + CC(=O)c1c(C)c2cnc(Nc3ccc(N4CCNCC4)cn3)nc2n(C2CCCC2)c1=O [Palbociclib] (first compound max 10 µM, 7x7, partner max 10 µM) as the molecule, how does the Bliss excess [1] read?
Answer: -0.0163

Question: What about the Bliss excess [2] of the same molecule?
Answer: -0.0632

Question: What about the Bliss excess [3] of the same molecule?
Answer: -0.0158

Question: What about the Bliss excess [4] of the same molecule?
Answer: -0.0106

Question: What about the Bliss excess [5] of the same molecule?
Answer: -0.0222

Question: And the Bliss excess [6]?
Answer: -0.0612

Question: And the Bliss excess (Mewo (Melanoma))?
Answer: -0.0588

Question: And the Bliss excess [7]?
Answer: -0.03

Question: What about the Bliss excess [8] of the same molecule?
Answer: 0.039

Question: And the Bliss excess [9]?
Answer: 0.0179

Question: What about the Bliss excess [10] of the same molecule?
Answer: -0.0442

Question: What about the Bliss excess (NCI-H2795 (Mesothelioma)) of the same molecule?
Answer: 0.0247

Question: And the Bliss excess [11]?
Answer: -0.0165

Question: What about the Bliss excess (SH-4 (Melanoma)) of the same molecule?
Answer: -0.045

Question: And the Bliss excess (NCI-H2461 (Mesothelioma))?
Answer: -0.0609

Question: And the Bliss excess [12]?
Answer: -0.0463

Question: And the Bliss excess [13]?
Answer: -0.0234

Question: What about the Bliss excess [14] of the same molecule?
Answer: 0.014

Question: And the Bliss excess (NB14 (Neuroblastoma))?
Answer: 0.0419

Question: What about the Bliss excess [15] of the same molecule?
Answer: -0.0423

Question: With `NC1(C(=O)N[C@@H](CCO)c2ccc(Cl)cc2)CCN(c2ncnc3[nH]ccc23)CC1` [Capivasertib] + CC(C)n1c(=O)n(C)c2cnc3cc(F)c(-c4ccc(OCCCN5CCCCC5)nc4)cc3c21 [AZD1390] (first compound max 10 µM, 7x7, partner max 0.3 µM) as the molecule, how does the Bliss excess [1] read?
Answer: -0.0812

Question: What about the Bliss excess [2] of the same molecule?
Answer: -0.0793

Question: What about the Bliss excess [3] of the same molecule?
Answer: -0.0353

Question: What about the Bliss excess [4] of the same molecule?
Answer: -0.0539

Question: And the Bliss excess [5]?
Answer: -0.0002

Question: And the Bliss excess [6]?
Answer: -0.0376

Question: And the Bliss excess (Mewo (Melanoma))?
Answer: -0.0597

Question: What about the Bliss excess [7] of the same molecule?
Answer: -0.043

Question: What about the Bliss excess [8] of the same molecule?
Answer: -0.0807

Question: And the Bliss excess [9]?
Answer: -0.0656

Question: And the Bliss excess [10]?
Answer: -0.0608

Question: What about the Bliss excess (NCI-H2795 (Mesothelioma)) of the same molecule?
Answer: -0.0483

Question: And the Bliss excess [11]?
Answer: -0.0625

Question: And the Bliss excess (SH-4 (Melanoma))?
Answer: -0.0856

Question: What about the Bliss excess (NCI-H2461 (Mesothelioma)) of the same molecule?
Answer: -0.0579

Question: What about the Bliss excess [12] of the same molecule?
Answer: -0.0754

Question: What about the Bliss excess [13] of the same molecule?
Answer: -0.0332

Question: And the Bliss excess [14]?
Answer: -0.0828

Question: What about the Bliss excess (NB14 (Neuroblastoma)) of the same molecule?
Answer: -0.0269

Question: And the Bliss excess [15]?
Answer: -0.08

Question: With `NC1(C(=O)N[C@@H](CCO)c2ccc(Cl)cc2)CCN(c2ncnc3[nH]ccc23)CC1` [Capivasertib] + CCN(CCO)CCCOc1ccc2c(Nc3cc(CC(=O)Nc4cccc(F)c4)[nH]n3)ncnc2c1 [AZD2811] (first compound max 10 µM, 7x7, partner max 1 µM) as the molecule, how does the Bliss excess [1] read?
Answer: -0.0486

Question: And the Bliss excess [2]?
Answer: 0.0132

Question: What about the Bliss excess [3] of the same molecule?
Answer: -0.0306

Question: What about the Bliss excess [4] of the same molecule?
Answer: -0.0379

Question: What about the Bliss excess [5] of the same molecule?
Answer: 0.0228

Question: And the Bliss excess [6]?
Answer: 0.0193

Question: What about the Bliss excess (Mewo (Melanoma)) of the same molecule?
Answer: 0.0228

Question: And the Bliss excess [7]?
Answer: -0.0387

Question: What about the Bliss excess [8] of the same molecule?
Answer: -0.0195

Question: And the Bliss excess [9]?
Answer: 0.0136

Question: What about the Bliss excess [10] of the same molecule?
Answer: -0.0366

Question: And the Bliss excess (NCI-H2795 (Mesothelioma))?
Answer: 0.0267

Question: What about the Bliss excess [11] of the same molecule?
Answer: -0.0464

Question: And the Bliss excess (SH-4 (Melanoma))?
Answer: -0.0507

Question: And the Bliss excess (NCI-H2461 (Mesothelioma))?
Answer: -0.0811

Question: What about the Bliss excess [12] of the same molecule?
Answer: -0.0301

Question: And the Bliss excess [13]?
Answer: -0.0122

Question: And the Bliss excess [14]?
Answer: -0.0338

Question: What about the Bliss excess (NB14 (Neuroblastoma)) of the same molecule?
Answer: -0.03

Question: And the Bliss excess [15]?
Answer: -0.133

Question: For `NC1(C(=O)N[C@@H](CCO)c2ccc(Cl)cc2)CCN(c2ncnc3[nH]ccc23)CC1` [Capivasertib] + COc1nnc2ccc(N3CCC(c4ccc(OCCN5CCN(C)C(=O)[C@H]5C)cc4)CC3)nn12 [AZD5153] (first compound max 10 µM, 7x7, partner max 1 µM), which Bliss excess [1] is on record?
Answer: -0.0045

Question: What about the Bliss excess [2] of the same molecule?
Answer: 0.019

Question: What about the Bliss excess [3] of the same molecule?
Answer: -0.0154

Question: What about the Bliss excess [4] of the same molecule?
Answer: 0.0159

Question: And the Bliss excess [5]?
Answer: -0.0507

Question: And the Bliss excess [6]?
Answer: 0.0409

Question: And the Bliss excess (Mewo (Melanoma))?
Answer: -0.0532

Question: And the Bliss excess [7]?
Answer: 0.042

Question: What about the Bliss excess [8] of the same molecule?
Answer: 0.0063

Question: And the Bliss excess [9]?
Answer: 0.0419

Question: What about the Bliss excess [10] of the same molecule?
Answer: 0.009

Question: And the Bliss excess (NCI-H2795 (Mesothelioma))?
Answer: -0.0197

Question: What about the Bliss excess [11] of the same molecule?
Answer: 0.0304

Question: And the Bliss excess (SH-4 (Melanoma))?
Answer: -0.0171

Question: What about the Bliss excess (NCI-H2461 (Mesothelioma)) of the same molecule?
Answer: -0.0007

Question: And the Bliss excess [12]?
Answer: -0.0193

Question: And the Bliss excess [13]?
Answer: 0.0041

Question: What about the Bliss excess [14] of the same molecule?
Answer: -0.0156

Question: And the Bliss excess (NB14 (Neuroblastoma))?
Answer: -0.0216

Question: What about the Bliss excess [15] of the same molecule?
Answer: -0.0305

Question: What does the source list for `NC1(C(=O)N[C@@H](CCO)c2ccc(Cl)cc2)CCN(c2ncnc3[nH]ccc23)CC1` [Capivasertib] + C[C@@H]1COCCN1C2=NC(=NC(=C2)C3(CC3)[S@](=N)(=O)C)C4=C5C=CNC5=NC=C4 [AZD6738] (first compound max 10 µM, 7x7, partner max 10 µM)?
Answer: Bliss excess [1]: -0.0423; Bliss excess [2]: -0.0397; Bliss excess [3]: -0.0486; Bliss excess [4]: -0.0693; Bliss excess [5]: -0.0451; Bliss excess [6]: -0.0134; Bliss excess (Mewo (Melanoma)): -0.0968; Bliss excess [7]: -0.0575; Bliss excess [8]: 0.0252; Bliss excess [9]: -0.0002; Bliss excess [10]: -0.0459; Bliss excess (NCI-H2795 (Mesothelioma)): -0.0197; Bliss excess [11]: -0.039; Bliss excess (SH-4 (Melanoma)): -0.036; Bliss excess (NCI-H2461 (Mesothelioma)): -0.0866; Bliss excess [12]: -0.0456; Bliss excess [13]: -0.0167; Bliss excess [14]: -0.0622; Bliss excess (NB14 (Neuroblastoma)): -0.032; Bliss excess [15]: -0.118
